Source: BindingDB's records for doi:10.7270/Q2K072QS (Burnham Center For Chemical Genomics, 2010)

Molecular target: G-protein coupled receptor 35 (Homo sapiens, UniProt Q9HC97)
Experiment: GPR35 antagonists by imaging, SAR follow-up, selectivity assay for GPR55 agonist project, high-content imaging (AID 2338)
Settings: not given

Sequence of G-protein coupled receptor 35 (Q9HC97 whole entry): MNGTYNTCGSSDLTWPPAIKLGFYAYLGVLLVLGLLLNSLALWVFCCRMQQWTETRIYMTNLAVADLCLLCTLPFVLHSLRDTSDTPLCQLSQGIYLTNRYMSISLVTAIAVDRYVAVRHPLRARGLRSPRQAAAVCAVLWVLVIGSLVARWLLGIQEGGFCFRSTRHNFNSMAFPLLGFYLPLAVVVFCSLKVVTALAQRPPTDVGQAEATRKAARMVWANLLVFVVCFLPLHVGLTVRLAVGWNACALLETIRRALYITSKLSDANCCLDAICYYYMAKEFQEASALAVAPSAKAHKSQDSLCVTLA

Row | Compound | IC50 [µM]
1 | COc1ccccc1C=CC(=O)NC(=S)Nc1ccc(S(=O)(=O)N(C)c2ccccc2)cc1 | > 32
2 | O=C(CSc1nc2ccccc2s1)N1c2ccccc2Sc2ccc(C(F)(F)F)cc21 | > 32
3 | COc1ccc2cc(C)c3nnc(SCC(=O)Nc4nc(-c5ccc(F)cc5)cs4)n3c2c1 [N-[4-(4-fluorophenyl)-1,3-thiazol-2-yl]-2-[(8-methoxy-4-methyl-[1,2,4]triazolo[4,3-a]quinolin-1-yl)sulfanyl]ethanamide] | > 32
4 | CC(C)=CC(=O)Nc1ccc(OCc2ccccc2)cc1 [3-methyl-N-(4-phenylmethoxyphenyl)but-2-enamide] | > 32
5 | COc1ccc(S(=O)(=O)N2CCOCC2)cc1NC(=O)c1cc2c(s1)CCCC2 [N-[2-methoxy-5-(4-morpholinylsulfonyl)phenyl]-4,5,6,7-tetrahydro-1-benzothiophene-2-carboxamide] | > 32
6 | COc1cc2c(cc1NC(=O)C(C)Sc1ccc(NC(C)=O)cc1)oc1ccccc12 (stereo unspecified) [2-[(4-acetamidophenyl)thio]-N-(2-methoxy-3-dibenzofuranyl)propanamide] | > 32
7 | C/C(C=NNC(=O)c1nnn(-c2nonc2N)c1CN1CCC(C)CC1)=C/c1ccccc1 | > 32
8 | CC(C)Oc1ccc(S(=O)(=O)N2CCOCC2)cc1NC(=O)c1ccc(N2CCCC2=O)cc1 [N-(5-morpholin-4-ylsulfonyl-2-propan-2-yloxy-phenyl)-4-(2-oxidanylidenepyrrolidin-1-yl)benzamide] | > 32
9 | C=CCN(CC=C)S(=O)(=O)c1ccc(NC(=S)NC(=O)c2ccc(-c3ccccc3)cc2)cc1 | > 32
10 | Cc1cccc(N2CCN(C(=O)c3cc(S(=O)(=O)N(C)C)ccc3N3CCCC3)CC2)c1C | > 32
11 | COc1ccc(-c2csc(NC(=O)CSc3nnc4c(C)cc5ccccc5n34)n2)cc1 [N-[4-(4-methoxyphenyl)-1,3-thiazol-2-yl]-2-[(4-methyl-[1,2,4]triazolo[4,3-a]quinolin-1-yl)sulfanyl]ethanamide] | > 32
12 | CC(C)NS(=O)(=O)c1ccc(NC(=S)NC(=O)c2ccc(-c3ccccc3)cc2)cc1 [SMR000200853] | > 32
13 | COc1cc2c(cc1NC(=O)CSc1ccccc1)oc1ccccc12 [MLS000579482] | > 32

More lines, now with the values ahead:

Row | IC50 [µM] | Compound
14 | > 32 | CC(Sc1nc2cc(Cl)ccc2s1)C(=O)Nc1cccc(S(=O)(=O)N2CCOCC2)c1 (stereo unspecified) [SMR000243093]
15 | > 32 | O=C(CSc1nc2ccccc2s1)N1c2ccccc2Sc2ccc(Cl)cc21 [SMR000198068]
16 | > 32 | CN(C)S(=O)(=O)c1ccc(N2CCCC2)c(C(=O)N2CCN(c3ccc([N+](=O)[O-])cc3)CC2)c1 [SMR000370611]
17 | > 32 | CCCN(CCC)Cc1c(C(=O)NN=C/C(C)=C\c2ccccc2)nnn1-c1nonc1N [1-(4-azanyl-1,2,5-oxadiazol-3-yl)-5-[(dipropylamino)methyl]-N-[[(Z)-2-methyl-3-phenyl-prop-2-enylidene]amino]-1,2,3-triazole-4-carboxamide]
18 | > 32 | CCCN(CCC)Cc1c(C(=O)NN=Cc2c[nH]c3ccccc23)nnn1-c1nonc1N
19 | > 32 | COc1ccc2c(c1)cc(C)c1nnc(SCC(=O)N(C)c3nc(-c4ccccc4)cs3)n12 [MLS-0102574.0001]
20 | > 32 | Cc1occc1C(=O)Nc1ccc(OCc2ccccc2)cc1 [2-methyl-N-(4-phenylmethoxyphenyl)furan-3-carboxamide]

Same assay, conditions: inactive by the depositor's call

Row | Compound | IC50 [µM]
21 | CCCN(CCC)Cc1c(C(=O)NN=C/C(C)=C\c2ccco2)nnn1-c1nonc1N [1-(4-azanyl-1,2,5-oxadiazol-3-yl)-5-[(dipropylamino)methyl]-N-[[(Z)-3-(furan-2-yl)-2-methyl-prop-2-enylidene]amino]-1,2,3-triazole-4-carboxamide] | 24.4
